Measured values taken from patent EP0510473A1, “Thienyl-nonatetraenoic acid derivatives with anti-rheumatic activity” (F. HOFFMANN-LA ROCHE AG, priority 1991, dated 1992).
Marks after values point to notes of the source that are not given here. One block for each molecule: values may come before it.

Assays:
[1] = system: adjuvant arthritis; assay: Established adjuvant arthritis model (chronic adjuvant arthritis test); format: in vivo, male Charles River Lewis rats; settings: for Change in Paw Volume (ml) / Change in body weight(g): difference from day 21 to day 28; for % Change in plasma fibrinogen: relative to vehicle-treated arthritic animals
Protocol: That the compounds of this invention are effective anti-arthritic agents can be seen from the results obtained when these compounds are administered to rats in accordance with the chronic adjuvant arthritis test system disclosed in Billingham and Davies "Handbook of Experimental Pharmacology" (editors J.R. Vane and S.H. Ferreira) Vol. 50/II, pg. 108-144, Springer-Verlag, Berlin, 1979). In this procedure, adjuvant arthritis was induced by the injection on day 0 to 0.10 ml of adjuvant (a suspension of heat-killed, dessicated Mycobacterium butyricum, 0.5% (w/v), in heavy mineral oil containing 0.2% digitonin) subplantarly into the right hind paw ("developing" model) or the base of the tail ("established" model) of male Charles River Lewis rats (120-140 g) that were housed individually and given food and water ad lib. Paw volumes (both hind paws) were measured immediately after injection of the adjuvant. Paw volumes were also measured at selected time intervals to follow the development of inflammation-induced swelling in the arthritic paws by immersion of the paw to the level of the lateral malleolus in a mercury plethysmograph. In the established adjuvant arthritis model [Table 2], the arthritis was allowed to develop untreated for 21 days and then the arthritic animals were divided into experimental groups with approximately equal mean hind paw volumes. Starting on day 21, the arthritic animals were treated by intubation once a day with drugs for 7 days (Tween 80 as vehicle). Arthritic control animals received daily doses of the vehicle only. On day 28, the animals were sacrificed, plasma was collected and plasma fibrinogen levels were determined as described above. Antiinflammatory activity was determined by comparing the change in paw swelling in drug-treated arthritic animals (combined hind paw volume on day 28 minus combined hind paw volume on day 21) with the change in paw swelling in vehicle-treated arthritic animals. Drug-induced changes in plasma fibrinogen were also used to assess the antiinflammatory effects of the test drugs.

[2] = system: adjuvant arthritis; assay: as above; format: in vivo, male Charles River Lewis rats; settings: 7 days; for Change in Paw Volume (ml) / Change in body weight(g): difference from day 21 to day 28; for % Change in plasma fibrinogen: relative to vehicle-treated arthritic animals
[3] = system: adjuvant arthritis; assay: Developing adjuvant arthritis model (chronic adjuvant arthritis test); format: in vivo, male Charles River Lewis rats; settings: for % Change in Paw Volume (day 23) left / % Change in Paw Volume (day 23) right / % Change in plasma fibrinogen: vs vehicle-treated arthritic animals; for Body Weight gain(g): body weight on day 23 minus day 0
Protocol: That the compounds of this invention are effective anti-arthritic agents can be seen from the results obtained when these compounds are administered to rats in accordance with the chronic adjuvant arthritis test system disclosed in Billingham and Davies "Handbook of Experimental Pharmacology" (editors J.R. Vane and S.H. Ferreira) Vol. 50/II, pg. 108-144, Springer-Verlag, Berlin, 1979). In this procedure, adjuvant arthritis was induced by the injection on day 0 to 0.10 ml of adjuvant (a suspension of heat-killed, dessicated Mycobacterium butyricum, 0.5% (w/v), in heavy mineral oil containing 0.2% digitonin) subplantarly into the right hind paw ("developing" model) or the base of the tail ("established" model) of male Charles River Lewis rats (120-140 g) that were housed individually and given food and water ad lib. Paw volumes (both hind paws) were measured immediately after injection of the adjuvant. Paw volumes were also measured at selected time intervals to follow the development of inflammation-induced swelling in the arthritic paws by immersion of the paw to the level of the lateral malleolus in a mercury plethysmograph. In the developing adjuvant arthritis model [Table 1], drugs were administered once a day (starting on the day of adjuvant injection and continuing for 23 days) by intubation using Tween 80 (polyoxyethylene sorbitan mono-oleate) at a dose of 0.25 ml/100 g body weight as the vehicle. Arthritic control rats received daily doses of the vehicle only. On day 23, i.e., approximately 24 hours after the last dose of drug, the rats were sacrificed, plasma was collected and plasma fibrinogen levels were determined (ammonium sulfate turbidimetric method) as described by Exner et al., Amer. J. Clin. Path., 71:521-527 (1979). Anti-inflammatory activity of the test drugs were determined by comparing the extent of paw swelling (paw volume on day 23 minus the paw volume on day 0) in drug-treated arthritic rats with the extent of paw swelling in the vehicle-treated arthritic rats. Drug induced decreases in the level of plasma fibrinogen, an acute phase protein that is elevated in the plasma of rats with adjuvant-induced arthritis, were also used to quantitiate the anti-inflammatory activity.

[4] = Serum triglycerides and cholesterol in normal animals treated for 14 days; format: in vivo, rats; settings: for Cholesterol (% change): serum, normal rats, vs vehicle-treated normal rats
Protocol: Normal animals were also treated with the test retinoids for 14 days and serum samples were collected for the determination of serum triglycerides and cholesterol. Triglyceride and cholesterol levels in the drug-treated animals were compared with triglyceride and cholesterol levels in vehicle-treated animals.

[5] = 75 µMoles/Kg p.o. tween 80, 7 days
[6] = 25 μ Moles/Kg Po. Tween 80, daily for 23 days
[7] = 75 μ Moles/Kg Po. Tween 80, daily for 23 days

Structure (SMILES): CCCCCCCCCOc1cc(C)sc1/C=C/C(C)=C/C=C/C(C)=C/C(=O)O
- Change in Paw Volume (ml) [1, 5]: 0.06* (1.03) ml
- Change in body weight(g) [1, 5]: 15(14) g
- % Change in plasma fibrinogen [1, 5]: -25* %

Structure (SMILES): CCCCOc1ccsc1/C=C/C(C)=C/C=C/C(C)=C/C(=O)O
- Change in Paw Volume (ml) ([2]; 75 µMoles/Kg i.p. corn oil): -0.59* (1.14) ml
- Change in body weight(g) ([2]; 75 µMoles/Kg i.p. corn oil): 11(10) g
- % Change in plasma fibrinogen ([2]; 75 µMoles/Kg i.p. corn oil): -55* %

Structure (SMILES): CCCCCCCCCOc1ccsc1/C=C/C(C)=C/C=C/C(C)=C/C(=O)O [the 2nd table, row 3]
- Change in Paw Volume (ml) ([1]; 25 µMoles/Kg p.o., 7 days): 0.15*(0.84) ml
- Change in body weight(g) ([1]; 25 µMoles/Kg p.o., 7 days): 9(14) g
- % Change in plasma fibrinogen ([1]; 25 µMoles/Kg p.o., 7 days): -32* %
- Change in Paw Volume (ml) [1, 5]: -0.63*(0.61) ml
- Change in body weight(g) [1, 5]: 5*(15) g
- % Change in plasma fibrinogen [1, 5]: -34* %

Structure (SMILES): CCCCCCCCCOc1ccsc1/C=C/C(C)=C/C=C/C(C)=C/C(=O)O [the 2nd table, row 5]
- Change in Paw Volume (ml) ([2]; 10 µMoles/Kg i.p. corn oil): 0.18* (0.86) ml
- Change in body weight(g) ([2]; 10 µMoles/Kg i.p. corn oil): 11(15) g
- % Change in plasma fibrinogen ([2]; 10 µMoles/Kg i.p. corn oil): -18* %

- Cholesterol (% change) ([4]; 25 μ Moles/Kg Po. Tween 80): -14* %
- Cholesterol (% change) ([4]; 75 μ Moles/Kg Po. Tween 80): -25* %
Structure (SMILES): CCCCCCCCCOc1ccsc1/C=C/C(C)=C/C=C/C(C)=C/C(=O)O [the 1st table, row 4]
- % Change in Paw Volume (day 23) left [3, 6]: -50* %
- % Change in Paw Volume (day 23) right [3, 6]: -50* %
- % Change in plasma fibrinogen [3, 6]: -45* %
- Body Weight gain(g) ([3]; 25 μ Moles/Kg Po. Tween 80): 31(37) g
- % Change in Paw Volume (day 23) left [3, 7]: -84* %
- % Change in Paw Volume (day 23) right [3, 7]: -68* %
- % Change in plasma fibrinogen [3, 7]: -55* %
- Body Weight gain(g) ([3]; 75 μ Moles/Kg Po. Tween 80): 27(30) g

- Cholesterol (% change) ([4]; 75 μ Moles/Kg Po. Tween 80): +66* %
Structure (SMILES): CC1=C(/C=C/C(C)=C/C=C/C(C)=C/C(=O)Nc2ccc(O)cc2)C(C)(C)CCC1 [the 1st table, row 6, 4-hydroxyphenyl retinamide, reference compound]
- % Change in Paw Volume (day 23) left [3, 7]: -51* %
- % Change in Paw Volume (day 23) right [3, 7]: -49* %
- % Change in plasma fibrinogen [3, 7]: -42* %
- Body Weight gain(g) ([3]; 75 μ Moles/Kg Po. Tween 80): 39(37) g

- hypertriglyceridemia ([4]; no dose given): hypertriglyceridemia
- serum cholesterol elevation ([4]; no dose given): serum cholesterol elevation
Structure (SMILES): CC1=C(/C=C/C(C)=C/C=C/C(C)=C/C(=O)Nc2ccc(O)cc2)C(C)(C)CCC1 [4-hydroxyphenyl retinamide]
